Results reported in ChEMBL document CHEMBL1201862, “PubChem BioAssay data set” (2004).
Activity calls are given as the source filed them.

Assays:
[1] = THP-1 cell cytotoxicity, cytotoxicity control, set 4 (AID 504911); type: functional; details: Mycobacterium tuberculosis
[2] = HepG2 cell cytotoxicity, cytotoxicity control, set 4 (AID 504910); type: functional; details: Mycobacterium tuberculosis
INS1 = assay: beta cell apoptosis inhibitors, cytokine rescue, dose response, luminescence, retest (AID 449756); type: functional, cell-based; details: Rattus norvegicus;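 note: cell death triggered by IL-1 beta plus TNF-alpha plus IFN-gamma mixture; protective hits raise ATP signal compared with cytokine alone wells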
Streptococcus = assay: Group A Streptococcus viability loss, dose response, counter-screen for streptokinase expression inhibitor project, luminescence, BacTiterGlo (AID 1915); type: functional, organism-based;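 note: potency for reduction of bacterial viability or growth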
[3] = Vero cell cytotoxicity, dose response, cytotoxicity control for M. tuberculosis growth inhibitor project, Vero cells, purified and synthesized compounds, set 5 (AID 504909); type: functional; details: Mycobacterium tuberculosis
[4] = system: Streptococcus sp. 'group A'; assay: growth inhibition of control SK(-) GAS strain, dose response, counter-screen for streptokinase expression inhibitor project, luminescence, kanamycin, BacTiterGlo, confirmation (AID 1900); type: functional, organism-based
Streptokinase A = target: T1, Streptokinase A (Streptococcus pyogenes serotype M1, UniProt P10520); assay: S. pyogenes streptokinase expression inhibitors, potency, dose response, plasminogen activation absorbance, OD405 (AID 1914); type: functional, Streptococcus pyogenes M1 GAS;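 note: secreted streptokinase activity via plasminogen activation per viability signal from cell pellet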
T1 sequence (P10520 whole entry): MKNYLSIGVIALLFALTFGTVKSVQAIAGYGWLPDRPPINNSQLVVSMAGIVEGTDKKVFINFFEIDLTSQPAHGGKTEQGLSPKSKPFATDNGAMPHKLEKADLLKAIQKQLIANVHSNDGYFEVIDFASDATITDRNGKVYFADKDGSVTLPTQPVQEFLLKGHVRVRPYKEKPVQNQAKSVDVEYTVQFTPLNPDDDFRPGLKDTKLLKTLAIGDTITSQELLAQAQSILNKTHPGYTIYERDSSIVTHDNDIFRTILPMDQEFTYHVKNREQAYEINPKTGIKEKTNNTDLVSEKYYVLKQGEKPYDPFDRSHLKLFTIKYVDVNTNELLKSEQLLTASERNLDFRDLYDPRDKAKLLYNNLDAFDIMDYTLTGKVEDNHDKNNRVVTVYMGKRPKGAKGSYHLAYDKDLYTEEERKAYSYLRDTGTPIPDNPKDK

[5] = target: Melanin-concentrating hormone receptor 1 (Homo sapiens, UniProt Q99705); assay: Late-stage fluorescence-based counterscreen for antagonists of the G-protein coupled receptor 7 (GPR7): cell-based dose response assay to identify antagonists of the melanin-concentrating hormone receptor 1 (MCHR1) Set 6.; type: functional
Melanin-concentrating hormone receptor 1, sequence (Q99705 whole entry): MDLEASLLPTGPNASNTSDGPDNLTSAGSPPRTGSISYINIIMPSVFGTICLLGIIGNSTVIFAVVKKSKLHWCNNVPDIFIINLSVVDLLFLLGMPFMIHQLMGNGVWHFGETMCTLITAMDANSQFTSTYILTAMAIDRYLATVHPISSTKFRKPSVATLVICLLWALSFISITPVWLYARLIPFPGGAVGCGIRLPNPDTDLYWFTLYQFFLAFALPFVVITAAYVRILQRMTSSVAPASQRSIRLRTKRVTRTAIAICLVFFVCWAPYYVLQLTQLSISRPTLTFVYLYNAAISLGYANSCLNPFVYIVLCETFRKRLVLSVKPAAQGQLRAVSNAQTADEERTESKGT

[6] = target: T2, Neuropeptides B/W receptor type 1 (Homo sapiens, UniProt P48145); assay: GPR7 antagonist potency, late-stage follow-up, cell-based, fluorescence, dose response, set 6 (AID 588583); type: functional
T2 sequence (P48145 whole entry): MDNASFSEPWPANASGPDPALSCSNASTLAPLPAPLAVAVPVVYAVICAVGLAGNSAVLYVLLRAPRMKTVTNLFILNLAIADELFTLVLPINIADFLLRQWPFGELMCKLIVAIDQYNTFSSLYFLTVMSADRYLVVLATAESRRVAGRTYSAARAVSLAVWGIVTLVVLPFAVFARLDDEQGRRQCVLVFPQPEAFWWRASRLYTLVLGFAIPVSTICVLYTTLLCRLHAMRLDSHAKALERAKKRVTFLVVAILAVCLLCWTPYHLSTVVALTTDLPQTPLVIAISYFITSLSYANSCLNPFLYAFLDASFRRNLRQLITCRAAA

[7] = target: T3, Apoptotic protease-activating factor 1 (Homo sapiens, UniProt O14727); assay: SAR analysis of small molecule Activators of Apaf-1 in a Fluorescent assay - set 2.; type: functional; details: read-out: EC50_Mean
T3 sequence (O14727 whole entry): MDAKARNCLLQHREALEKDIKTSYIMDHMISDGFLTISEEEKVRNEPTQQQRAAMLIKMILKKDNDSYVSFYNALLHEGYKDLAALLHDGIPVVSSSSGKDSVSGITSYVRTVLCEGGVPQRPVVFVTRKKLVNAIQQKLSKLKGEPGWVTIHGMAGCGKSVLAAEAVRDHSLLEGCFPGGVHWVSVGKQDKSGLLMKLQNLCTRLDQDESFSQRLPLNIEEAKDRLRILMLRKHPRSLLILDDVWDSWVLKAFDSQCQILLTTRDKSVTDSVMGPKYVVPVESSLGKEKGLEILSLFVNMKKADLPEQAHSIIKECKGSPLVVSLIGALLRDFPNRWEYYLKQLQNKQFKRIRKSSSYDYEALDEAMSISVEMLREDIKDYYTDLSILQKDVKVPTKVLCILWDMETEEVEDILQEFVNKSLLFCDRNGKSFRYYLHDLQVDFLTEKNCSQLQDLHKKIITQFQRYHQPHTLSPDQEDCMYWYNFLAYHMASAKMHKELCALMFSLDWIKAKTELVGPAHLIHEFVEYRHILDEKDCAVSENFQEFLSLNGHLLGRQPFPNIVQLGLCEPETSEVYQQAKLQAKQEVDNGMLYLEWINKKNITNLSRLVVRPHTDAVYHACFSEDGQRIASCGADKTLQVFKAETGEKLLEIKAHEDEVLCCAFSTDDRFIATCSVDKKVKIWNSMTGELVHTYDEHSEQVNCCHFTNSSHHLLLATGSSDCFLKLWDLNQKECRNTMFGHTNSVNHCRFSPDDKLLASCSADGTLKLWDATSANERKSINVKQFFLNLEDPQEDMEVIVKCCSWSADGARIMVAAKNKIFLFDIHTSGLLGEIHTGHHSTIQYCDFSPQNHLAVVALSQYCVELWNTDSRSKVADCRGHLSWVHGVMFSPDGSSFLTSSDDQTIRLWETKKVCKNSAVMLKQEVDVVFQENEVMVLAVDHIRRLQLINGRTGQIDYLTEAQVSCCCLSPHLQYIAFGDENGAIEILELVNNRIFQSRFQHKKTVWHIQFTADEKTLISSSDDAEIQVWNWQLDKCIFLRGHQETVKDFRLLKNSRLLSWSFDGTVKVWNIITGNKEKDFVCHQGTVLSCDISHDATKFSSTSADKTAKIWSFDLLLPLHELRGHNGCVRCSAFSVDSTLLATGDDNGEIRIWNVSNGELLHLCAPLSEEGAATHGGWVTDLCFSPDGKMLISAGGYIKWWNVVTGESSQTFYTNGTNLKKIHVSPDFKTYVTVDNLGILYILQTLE

[8] = SAR analysis of small molecule activators of Apaf-1 using a LZ-Caspase-9/Caspase-3 Fluorescent Selectivity assay - Set 2.; type: functional; details: read-out: EC50_Mean

Question: For `CC(C)/N=c1\cc2n(-c3ccc(Cl)cc3)c3ccccc3nc-2cc1Nc1ccc(Cl)cc1` [CLOFAZIMINE], which CC50 [1] is on record?
Answer: 2.2 µM (active)

Question: And the CC50 [2]?
Answer: 4.7 µM (active)

Question: What about the AC50 (INS1) of the same molecule?
Answer: 2.06 µM (active)

Question: And the EC50 (Streptococcus)?
Answer: 36.9 µM (active)

Question: And the CC50 [3]?
Answer: 10.2 µM (active)

Question: What about the EC50 [4] of the same molecule?
Answer: 1.86 µM (active)

Question: What about the EC50 (Streptokinase A) of the same molecule?
Answer: 2.28 µM (active)

Question: Which IC50 [5] does the source give for `NC(=O)C(c1ccccc1)c1c(Cl)cnn(Cc2cccc3ccccc23)c1=O` (stereo unspecified) here?
Answer: > 20 µM (inactive)

Question: What about the IC50 [6] of the same molecule?
Answer: > 20 µM (inactive)

Question: Which EC50 [7] does the source give for `O=C(O)C1(Cn2cccn2)CC1` here?
Answer: > 100 µM (inactive)

Question: What about the EC50 [8] of the same molecule?
Answer: > 100 µM (inactive)
